Like-named read-outs stand apart in the source and are kept apart here. Blank lines part the entries; values can stand above or below the compound they belong to.
What was measured:
PpCM1 = test: CM activity assay, recombinant PpCM1 (disappearance of chorismate at 274 nm); format: biochemical, Pinus pinaster; conditions: for impact on activity (activation or inhibition), effector screening: threshold […] (Figure S2)
Procedure: (§1) Similarly, the effect on CM activity of decreasing concentrations of the amino acids Phe, Tyr, and Trp was determined.
(§2) To study their catalytic properties, P. pinaster PpCM1 and PpCM2 were functionally expressed in E. coli, including N-terminal His-tags, lacking the predicted chloroplast signal peptides, and were subsequently purified with Ni^2+-affinity chromatography.

PpCM2 = test: CM activity assay, recombinant PpCM2 (disappearance of chorismate at 274 nm); format: biochemical, Pinus pinaster; conditions: for impact on activity (activation or inhibition), effector screening: threshold […] (Figure S2)
Procedure: as §1, §2

CMs from lycophytes = conditions: substrate chorismate; ref [30]; cited from earlier work
CMs from mosses = conditions: substrate chorismate; ref [30]; cited from earlier work
[1] = 2 mM amino acid, 1 mM chorismate
[2] = inhibition of CM activity by Phe, read-out: EC50 (Phe)
[3] = activation of CM activity by Trp, read-out: EC50 (Trp)
[4] = substrate chorismate, 50 mM Tris pH 8, 30 °C
[5] = substrate chorismate, turnover rate

- EC50 (PpCM1; [2]): 36 µM
- EC50 (PpCM2; [2]): 88 µM
SMILES: N[C@@H](Cc1ccccc1)C(=O)O [Phe, phenylalanine]
- reduction in activity compared to controls (PpCM1; [1]): 9.6 fold
- impact on activity (activation or inhibition), effector screening (PpCM1; 2 mM amino acid): > 1.5 fold
- reduction in activity compared to controls (PpCM2; [1]): 3 fold
- impact on activity (activation or inhibition), effector screening (PpCM2; 2 mM amino acid): > 1.5 fold
- retained activity (PpCM2; in the presence of 2 mM Phe): 30–35%

SMILES: N[C@@H](Cc1c[nH]c2ccccc12)C(=O)O [Trp, tryptophan]
- increase in activity (PpCM1; [1]): 3.1 fold
- impact on activity (activation or inhibition), effector screening (PpCM1; 2 mM amino acid): > 1.5 fold
- EC50 (PpCM1; [3]): ~0.1 µM
- increase in activity (PpCM2; [1]): 1.7 fold
- impact on activity (activation or inhibition), effector screening (PpCM2; 2 mM amino acid): > 1.5 fold
- EC50 (PpCM2; [3]): ~0.1 µM

SMILES: N[C@@H](Cc1ccc(O)cc1)C(=O)O [Tyr, tyrosine]
- reduction in activity compared to controls (PpCM1; [1]): 11.4 fold
- impact on activity (activation or inhibition), effector screening (PpCM1; 2 mM amino acid): > 1.5 fold
- reduction in activity compared to controls (PpCM2; [1]): 10.1 fold
- impact on activity (activation or inhibition), effector screening (PpCM2; 2 mM amino acid): > 1.5 fold

- Km (PpCM1; [4]): 1600 µM
- Km (PpCM2; [4]): 1700 µM
SMILES: C=C(O[C@@H]1C=C(C(=O)O)C=C[C@H]1O)C(=O)O [chorismate]
- Kcat (PpCM1; [5]): 29.4 s⁻¹
- Kcat (PpCM2; [5]): 35 s⁻¹
- Kcat (CMs from lycophytes): 18.8 s⁻¹
- Kcat (CMs from mosses): 19.5 to 20.7 s⁻¹

Reference: publication PMC11171525 (Cells, 2024)
